According to patent US12448369B2 (Edgewise Therapeutics, Inc., priority 2023, dated 2025):

Tests used:
[1] = biological target: T1, Porcine ventricle myofibrils (ventricular myosin ATPase) (Sus scrofa, UniProt P79293); assay: Myofibril ATPase assay, porcine ventricle myofibrils; assay type: biochemical, porcine (Yucatan minipigs); conditions: porcine ventricle myofibrils
T1 construct: Myofibrils from porcine cardiac muscle was isolated from the left ventricle of Yucatan minipigs; tissue Exemplar Genetics; host or cells: left ventricle of Yucatan minipigs, myofibrils prepared in house
In short: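 Test compounds acted on myofibrils isolated from the left ventricle of Yucatan minipigs. ADP formation was coupled via pyruvate kinase/lactate dehydrogenase to NADH oxidation, monitored kinetically at 340 nm over 75 min. Rates relative to vehicle were fitted with a 4-parameter logistic model, reported as Y75 (25% inhibition) or Y125 (activation) concentrations.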

[2] = tested on: Rabbit Psoas myofibrils (skeletal myosin ATPase); assay: Myofibril ATPase assay, rabbit psoas (skeletal) myofibrils; assay type: biochemical; conditions: rabbit psoas myofibrils
In short: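 ATPase activity of Triton-washed myofibrils was measured by PK/LDH coupling, following NADH loss at 340 nm every 1.5–2 min for 75 min in PIPES/Ca/EGTA buffer at pH 7.0. Slopes, normalized to vehicle (100%), were fitted to a 4-parameter logistic model. Values are Y75 (25% inhibition) or Y125 (activators).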

[3] = tested on: Porcine atria myofibrils (atrial myosin ATPase); assay: Myofibril ATPase assay, porcine atria myofibrils; assay type: biochemical; conditions: porcine atria myofibrils
In short: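 Porcine atrial myofibrils were tested in a PK/LDH-coupled system where ADP from myosin ATPase drives NADH oxidation. Absorbance at 340 nm was read every 1.5-2 min for 75 min and slopes were normalized to vehicle wells. A 4-parameter logistic fit gave Y75 (25% inhibition) or Y125 (activation) concentrations.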

[4] = Y75 value (75% activity relative to no compound)
[5] = ‡ Y125 value, not a Y75 value (125% activity relative to no compound)

T1 sequence (P79293 whole entry): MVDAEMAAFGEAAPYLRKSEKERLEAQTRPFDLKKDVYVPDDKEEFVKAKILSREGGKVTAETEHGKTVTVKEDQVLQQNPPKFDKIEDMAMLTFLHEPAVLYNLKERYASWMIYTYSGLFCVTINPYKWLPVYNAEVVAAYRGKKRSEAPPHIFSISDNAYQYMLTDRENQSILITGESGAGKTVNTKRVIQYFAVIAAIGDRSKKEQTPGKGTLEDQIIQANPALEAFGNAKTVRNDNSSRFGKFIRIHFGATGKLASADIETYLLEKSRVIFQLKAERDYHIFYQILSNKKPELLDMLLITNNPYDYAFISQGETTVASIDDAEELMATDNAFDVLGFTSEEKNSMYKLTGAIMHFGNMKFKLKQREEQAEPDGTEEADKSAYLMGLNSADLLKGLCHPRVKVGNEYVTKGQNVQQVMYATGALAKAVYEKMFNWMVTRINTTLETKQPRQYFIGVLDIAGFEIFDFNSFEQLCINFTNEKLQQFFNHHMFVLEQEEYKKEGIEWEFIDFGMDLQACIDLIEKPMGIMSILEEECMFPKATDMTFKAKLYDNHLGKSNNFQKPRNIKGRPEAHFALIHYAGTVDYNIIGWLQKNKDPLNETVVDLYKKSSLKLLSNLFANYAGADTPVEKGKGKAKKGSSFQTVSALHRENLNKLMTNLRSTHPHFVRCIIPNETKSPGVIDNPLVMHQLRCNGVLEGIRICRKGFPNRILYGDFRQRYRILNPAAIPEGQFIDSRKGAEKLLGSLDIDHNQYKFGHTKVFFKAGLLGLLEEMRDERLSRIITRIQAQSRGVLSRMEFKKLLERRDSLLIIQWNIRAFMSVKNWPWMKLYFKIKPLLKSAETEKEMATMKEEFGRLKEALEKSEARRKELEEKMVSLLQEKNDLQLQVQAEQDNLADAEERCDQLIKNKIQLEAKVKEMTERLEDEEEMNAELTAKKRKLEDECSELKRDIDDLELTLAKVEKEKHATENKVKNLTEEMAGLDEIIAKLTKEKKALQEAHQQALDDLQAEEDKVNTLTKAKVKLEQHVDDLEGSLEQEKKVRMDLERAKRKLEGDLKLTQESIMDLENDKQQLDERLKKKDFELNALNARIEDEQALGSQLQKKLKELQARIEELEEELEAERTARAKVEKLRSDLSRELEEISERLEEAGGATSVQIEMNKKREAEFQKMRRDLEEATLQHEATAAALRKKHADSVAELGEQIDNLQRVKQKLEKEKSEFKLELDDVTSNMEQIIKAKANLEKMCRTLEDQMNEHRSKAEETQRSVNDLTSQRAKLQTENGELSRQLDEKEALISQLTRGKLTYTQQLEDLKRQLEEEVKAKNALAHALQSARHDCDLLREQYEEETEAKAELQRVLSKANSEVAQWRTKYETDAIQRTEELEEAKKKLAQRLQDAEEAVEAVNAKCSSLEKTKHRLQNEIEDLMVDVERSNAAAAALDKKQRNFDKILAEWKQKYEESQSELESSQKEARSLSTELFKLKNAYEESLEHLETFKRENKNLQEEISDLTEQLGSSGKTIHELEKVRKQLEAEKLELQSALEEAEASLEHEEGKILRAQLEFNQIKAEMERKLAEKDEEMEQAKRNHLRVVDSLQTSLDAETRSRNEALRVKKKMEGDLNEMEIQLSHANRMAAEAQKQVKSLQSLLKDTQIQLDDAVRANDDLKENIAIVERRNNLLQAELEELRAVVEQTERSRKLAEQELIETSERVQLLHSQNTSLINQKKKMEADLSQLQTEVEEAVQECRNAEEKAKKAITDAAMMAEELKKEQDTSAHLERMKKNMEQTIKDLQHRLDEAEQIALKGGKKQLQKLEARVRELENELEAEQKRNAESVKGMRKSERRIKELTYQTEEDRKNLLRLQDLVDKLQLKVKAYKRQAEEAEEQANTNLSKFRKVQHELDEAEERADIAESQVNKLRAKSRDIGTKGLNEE

SMILES	Ventricular EC25 ([1]; Y75 value (no ‡ mark))	Skeletal EC25 ([2]; Y75 value (no ‡ mark))	Atrial EC25 ([3]; Y75 value (no ‡ mark))	Ventricular EC25 ([1]; Y75 value)	Skeletal EC25 ([2]; Y75 value)	Atrial EC25 [3, 4]	Ventricular EC25 [1, 5]	Skeletal EC25 [2, 5]
Cc1nccc2[nH]c(=O)c(CC(=O)N[C@H](C)c3ncccc3F)c(C)c12 (single isomer, unassigned) [compound 267]				100.00 µM	100.00 µM	100.00 µM		
C[C@H](NC(=O)[C@H](C)c1c(C(F)(F)F)c2cc(F)ccc2[nH]c1=O)c1ccc(F)cc1F (single isomer, unassigned) [compound 58]	1.32 µM	0.15 µM	0.06 µM					
Cc1nc(C#N)cnc1[C@H](C)NC(=O)Cc1c(C)c2c(C#N)c(F)ccc2[nH]c1=O (single isomer, unassigned) [compound 2]	0.08 µM	0.02 µM	0.09 µM					
Cc1c(F)ccc2[nH]c(=O)c(CC(=O)N[C@H](C)c3ncc(F)cc3F)c(C#N)c12 [compound 1147]	0.94 µM	1.01 µM	2.84 µM					
Cc1ccc2[nH]c(=O)c(CC(=O)N[C@H](C)c3ncc(C#N)cc3F)c(C)c2n1 [compound 468]				1.48 µM	4.03 µM	0.80 µM		
Cc1nccc2[nH]c(=O)c(CC(=O)N[C@H](C)c3cnc(C#N)cn3)c(C)c12 [compound 486]				1.47 µM	0.20 µM	1.49 µM		
Cc1c(C2(C(=O)N[C@@H](C)c3ncc(C#N)cc3F)CC2)c(=O)[nH]c2ccc(F)c(C#N)c12 (single isomer, unassigned) [compound 2524]	0.31 µM	0.13 µM	0.16 µM					
C[C@H](NC(=O)Cc1cc2c(C#N)c(O)ccc2[nH]c1=O)c1ccc(F)cc1F [compound 82]	100.00 µM	100.00 µM	100.00 µM					
Cc1c(C(F)(F)C(=O)N[C@@H](C)c2ncc(F)cc2F)c(=O)[nH]c2ccc(F)cc12 (single isomer, unassigned) [compound 4820]	0.61 µM	0.11 µM	0.12 µM					
Cc1ccc2[nH]c(=O)c(CC(=O)N[C@H](C)c3ncc(C#N)cn3)cc2c1F (single isomer, unassigned) [compound 2013]	100.00 µM	13.05 µM	16.08 µM					
Cc1nccc2[nH]c(=O)c(CC(=O)N[C@H](C)c3cccnc3)c(C)c12 (single isomer, unassigned) [compound 322]				100.00 µM	100.00 µM	100.00 µM		
Cc1c(C(F)(F)C(=O)N[C@H](C)c2ccc(C#N)nn2)c(=O)[nH]c2ccc(F)cc12 (single isomer, unassigned) [compound 2555]	6.70 µM	0.80 µM	3.65 µM					
Cc1c(CC(=O)N[C@H](C)c2ccc(C#N)cc2F)c(=O)[nH]c2ccnc(OC3CC3)c12 [compound 201]				100.00 µM	1.02 µM	100.00 µM		
C[C@H](NC(=O)[C@H](C)c1c(C(F)(F)F)c2cc(F)ccc2[nH]c1=O)c1ccc(F)cc1F (single isomer, unassigned) [compound 100]	0.69 µM	0.04 µM	0.06 µM					
Cc1nc(C#N)cnc1[C@H](C)NC(=O)Cc1c(C)c2nc(C(F)(F)F)ccc2[nH]c1=O (single isomer, unassigned) [compound 139]				0.18 µM	0.02 µM	0.08 µM		
Cc1cc(F)cc(F)c1[C@H](C)NC(=O)Cc1c(C)c2c(C)nccc2[nH]c1=O (single isomer, unassigned) [compound 403]				2.08 µM	0.19 µM	40.23 µM		
C[C@H](NC(=O)Cc1c(C2CC2)c2cc(F)ccc2[nH]c1=O)c1ncc(C#N)cn1 (single isomer, unassigned) [compound 2064]	32.11 µM	0.26 µM	77.71 µM					
Cc1cccc2[nH]c(=O)c(CC(=O)N[C@@H](C)c3ccc(C#N)cn3)c(C#N)c12 [compound 1111]	2.28 µM	0.26 µM	0.49 µM					
Cc1c(CC(=O)N[C@@H](CO)c2ccc(F)cc2F)c(=O)[nH]c2ccnc(OC3CC3)c12 [compound 200]				100.00 µM	0.19 µM	3.03 µM		
Cc1c(CC(=O)N[C@H](C)c2ccc(C#N)cn2)c(=O)[nH]c2ccc(F)c(C3CC3)c12 [compound 23]	1.19 µM	0.50 µM	100.00 µM					
Cc1c(CC(=O)N[C@@H](C)c2ncc(C#N)cn2)c(=O)[nH]c2cccc(F)c12 (single isomer, unassigned) [compound 2042]	2.11 µM	2.39 µM	0.55 µM					
Cc1nccc2[nH]c(=O)c([C@@H](C)C(=O)N[C@@H](C)c3ccc(F)cc3F)c(C)c12 (single isomer, unassigned) [compound 399]				18.33 µM	0.30 µM	0.91 µM		

More lines, now with the values ahead:

Ventricular EC25 ([1]; Y75 value (no ‡ mark))	Skeletal EC25 ([2]; Y75 value (no ‡ mark))	Atrial EC25 ([3]; Y75 value (no ‡ mark))	Ventricular EC25 ([1]; Y75 value)	Skeletal EC25 ([2]; Y75 value)	Atrial EC25 [3, 4]	Ventricular EC25 [1, 5]	Skeletal EC25 [2, 5]	SMILES
0.46 µM	0.59 µM	0.73 µM						Cc1c(F)ccc2[nH]c(=O)c(C(F)(F)C(=O)N[C@H](C)c3ncc(C#N)cc3F)c(C)c12 (single isomer, unassigned) [compound 4811]
			100.00 µM	100.00 µM	100.00 µM			Cc1nccc2[nH]c(=O)c(CC(=O)N[C@@H](C)c3cccc(O)n3)c(C)c12 (single isomer, unassigned) [compound 298]
			13.00 µM	4.70 µM	1.90 µM			Cc1nc(C#N)cnc1[C@H](C)NC(=O)C(F)(F)c1c(C)c2c(C)nccc2[nH]c1=O (single isomer, unassigned) [compound 3505]
			0.31 µM	0.06 µM	0.14 µM			Cc1c(CC(=O)N[C@@H](C)c2ccc(F)cc2F)c(=O)[nH]c2ccnc(I)c12 [compound 353]
			100.00 µM	47.72 µM	100.00 µM			Cc1nc(C#N)ncc1[C@H](C)NC(=O)Cc1c(C)c2c(C)nccc2[nH]c1=O [compound 465]
		100.00 µM				100.00‡ μM	73.42‡ μM	Cc1c(CC(=O)N[C@@H](C)c2ncc(C#N)cn2)c(=O)[nH]c2ccc(C#N)cc12 (single isomer, unassigned) [compound 2028]
			100.00 µM	100.00 µM	100.00 µM			Cc1c(CC(=O)N[C@H](C)c2ncc(F)cc2F)c(=O)[nH]c2ccc(O)nc12 (single isomer, unassigned) [compound 222]
			100.00 µM	100.00 µM	30.66 µM			Cc1c(CC(=O)N[C@H](C)c2cnc(C#N)nc2)c(=O)[nH]c2ccc(C(F)(F)F)nc12 [compound 457]
			100.00 µM	1.57 µM	17.26 µM			Cc1c(CC(=O)N[C@H](C)c2ncc(F)cc2F)c(=O)[nH]c2ccnc(C#N)c12 (single isomer, unassigned) [compound 304]
			5.73 µM	100.00 µM	100.00 µM			COc1nccc2[nH]c(=O)c(CC(=O)N[C@H](C)c3ncc(C#N)cn3)c(C(F)(F)F)c12 (single isomer, unassigned) [compound 3007]
1.85 µM	0.13 µM	1.67 µM						Cc1c(C(F)(F)C(=O)N[C@@H](C)c2ncc(C#N)cn2)c(=O)[nH]c2cccc(C#N)c12 (single isomer, unassigned) [compound 4839]
			0.15 µM	0.03 µM	0.13 µM			Cc1c(CC(=O)N[C@@H](CO)c2ncc(C#N)cc2F)c(=O)[nH]c2ccnc(C#N)c12 (single isomer, unassigned) [compound 246]
0.33 µM	0.33 µM	0.23 µM						Cc1c(C(F)(F)C(=O)N[C@H](C)c2ncc(C#N)cn2)c(=O)[nH]c2ccc(F)cc12 (single isomer, unassigned) [compound 2594]
	100.00 µM	100.00 µM				44.26‡ μM		C[C@H](NC(=O)[C@@H](C)c1cc2cc(F)ccc2[nH]c1=O)c1ccc(F)cc1F (single isomer, unassigned) [compound 2608]
